Assay [1] addresses T1, MaltOBP10 (Monochamus alternatus, UniProt A0A1I9HZL5).
T1 construct: gene obp10; said to encode mature protein (clone primer starts at ATG)
T1 sequence (A0A1I9HZL5 1-144 limits assumed): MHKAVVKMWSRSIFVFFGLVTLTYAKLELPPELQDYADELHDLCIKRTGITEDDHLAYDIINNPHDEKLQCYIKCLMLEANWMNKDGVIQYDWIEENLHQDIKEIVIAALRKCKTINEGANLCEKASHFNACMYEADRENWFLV
As to the kind of experiment: biochemical. Also on record: 1-NPN fluorescence displacement competitive binding to 2 uM recombinant OBP; Ki from IC50. The method, then:
(§1) Fluorescence-binding assays were performed to determine the binding affinities of MaltOBP9 and MaltOBP10 with 17 volatiles in neutral and acidic pH conditions separately using N-phenyl-1-naphthylamine (1-NPN) as the fluorescent probe. 1-NPN and all of the other chemicals used in the binding assays were purchased from Sigma-Aldrich (St. Louis, MO, United States). All of the ligand stock solutions were prepared in spectrophotometric grade methanol. The binding constants for 1-NPN were determined by adding aliquots of 1 mM 1-NPN to separate samples containing 2 μM of each OBP in 50 mM Tris–HCl at pH 7.4 and room temperature. The binding of 1-NPN was measured at an excitation wavelength of 337 nm and the fluorescence intensity was recorded between 300 and 600 nm during a high-speed scan using an RF-5301PC fluorescence spectrophotometer with a 1-cm light path and a quartz cuvette. Saturation curves were constructed for the binding of 1-NPN with the OBPs and the dissociation constant (Kd) of the binding reaction was calculated by performing Scatchard analysis of the data using the Prism 5 program (GraphPad, La Jolla, CA, United States). The binding analyses were performed based on the assumption that the protein was completely active and that the stoichiometry of binding was 1:1 at saturation. Aliquots of the competitor ligand were added to a sample containing 2 μM of each separate OBP and a standard concentration of 1-NPN. […] The binding data were collected during three independent high-speed scans. Ki representing the Kd of the competitor was determined based on the IC50 value (half maximal inhibitory concentration) for the competitor as the concentration of the competitor that displaced 50% of the bound 1-NPN at a standard total 1-NPN concentration (bound plus free) at equilibrium. Ki was calculated according to the following equation: Ki = [IC50]/(1+[1-NPN]/K), where 1-NPN is the free concentration of 1-NPN and K1–NPN is Kd for the 1-NPN-OBP binding reaction determined by Scatchard analysis ([Campanacci et al., 2001]). After confirmation by SDS-PAGE, the purified MaltOBP9 and MaltOBP10 proteins were used in fluorescence-binding assays to determine their binding affinities with different volatiles that come from forest. First, we analyzed the binding of the fluorescent probe 1-NPN with MaltOBP9 and MaltOBP10 (Figure 6). […] The binding affinities (Ki < 50) ([Zheng et al., 2016]) with all of the ligands indicted the broad binding ranges of MaltOBP9 and MaltOBP10 at pH 7.4. […] The change in the pH appeared to have less impact on the binding with MaltOBP10.

Assay [2] concerns the target T2, MaltOBP9 (Monochamus alternatus, UniProt A0A1I9HZK8).
T2 construct: gene obp9; said to encode mature protein (clone primer starts at ATG)
T2 sequence (A0A1I9HZK8 1-140 limits assumed): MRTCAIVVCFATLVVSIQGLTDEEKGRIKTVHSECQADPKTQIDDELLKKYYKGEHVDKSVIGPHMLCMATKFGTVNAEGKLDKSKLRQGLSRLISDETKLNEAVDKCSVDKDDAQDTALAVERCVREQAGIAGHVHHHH
As to the kind of experiment: biochemical. Also on record: 1-NPN fluorescence displacement competitive binding to 2 uM recombinant OBP; Ki from IC50. The method, then: as §1

For assay [3], the target named is T2, MaltOBP9. As to the kind of experiment: fluorescence competitive binding, 1-NPN displacement. As to conditions: read-out: MaltOBP9 / pH7.4. An excerpt:
fluorescence competitive binding, 1-NPN displacement on MaltOBP9

In assay [4] the target is T1, MaltOBP10. Described as above. As to conditions: read-out: MaltOBP10 / pH7.4. An excerpt: fluorescence competitive binding, 1-NPN displacement on MaltOBP10
Assay [5] deals with T1, MaltOBP10. As to the kind of experiment: biochemical. Set-up: direct 1-NPN fluorescence saturation binding to 2 uM recombinant OBP; Kd by Scatchard analysis. To be noted: pH 5.0; read-out: MaltOBP10 / pH5.0. The method, then:
(§2) Fluorescence-binding assays were performed to determine the binding affinities of MaltOBP9 and MaltOBP10 with 17 volatiles in neutral and acidic pH conditions separately using N-phenyl-1-naphthylamine (1-NPN) as the fluorescent probe. 1-NPN and all of the other chemicals used in the binding assays were purchased from Sigma-Aldrich (St. Louis, MO, United States). All of the ligand stock solutions were prepared in spectrophotometric grade methanol. The binding constants for 1-NPN were determined by adding aliquots of 1 mM 1-NPN to separate samples containing 2 μM of each OBP in 50 mM Tris–HCl at pH 7.4 and room temperature. The binding of 1-NPN was measured at an excitation wavelength of 337 nm and the fluorescence intensity was recorded between 300 and 600 nm during a high-speed scan using an RF-5301PC fluorescence spectrophotometer with a 1-cm light path and a quartz cuvette. Saturation curves were constructed for the binding of 1-NPN with the OBPs and the dissociation constant (Kd) of the binding reaction was calculated by performing Scatchard analysis of the data using the Prism 5 program (GraphPad, La Jolla, CA, United States). […] Ki was calculated according to the following equation: Ki = [IC50]/(1+[1-NPN]/K), where 1-NPN is the free concentration of 1-NPN and K1–NPN is Kd for the 1-NPN-OBP binding reaction determined by Scatchard analysis ([Campanacci et al., 2001]). […]

Assay [6] deals with T2, MaltOBP9. As to the kind of experiment: biochemical. Set-up: direct 1-NPN fluorescence saturation binding to 2 uM recombinant OBP; Kd by Scatchard analysis. As to conditions: pH 5.0; read-out: MaltOBP9 / pH5.0. On the procedure:
as §2

The target of assay [7] is T2, MaltOBP9. As to the kind of experiment: fluorescence titration, Scatchard analysis. As to conditions: read-out: MaltOBP9 / pH7.4. Type of assay: binding. The text has this: fluorescence titration, Scatchard analysis on MaltOBP9
The target of assay [8] is T1, MaltOBP10. As to the kind of experiment: fluorescence titration, Scatchard analysis. Type of assay: binding. To be noted: read-out: MaltOBP10 / pH7.4. An excerpt:
fluorescence titration, Scatchard analysis on MaltOBP10

The mark [9] stands for this setting: pH 5.0, read-out: MaltOBP10 / pH5.0.
[10] abbreviates: pH 7.4, read-out: MaltOBP10 / pH7.4.
The mark [11] stands for this setting: pH 5.0, read-out: MaltOBP9 / pH5.0.
The mark [12] stands for this setting: pH 7.4, read-out: MaltOBP9 / pH7.4.

Regarding `CC1=CCC2C(C1)C2(C)C` (stereo not drawn) [3-carene], the Ki at MaltOBP10 [1] (setting [9]) was 32.5 ± 4.28 µM; at MaltOBP10 [1] (setting [10]), 42.5 ± 0.82 µM; at MaltOBP9 [2] (setting [11]), 38.12 ± 0.23 µM; at MaltOBP9 [2] (setting [12]) it was 25.1 ± 0.76 µM.

On to `C=C1CC/C=C(\C)CC[C@@H]2[C@@H]1CC2(C)C` [β-Caryophyllene], for which the Ki on MaltOBP9 [3] stood at 16.36 ± 0.04 µM; on MaltOBP10 [1] (setting [9]), 23.5 ± 1.72 µM; on MaltOBP9 [2] (setting [11]), 129 ± 9.52 µM; at MaltOBP10 [4], 16.3 ± 1.97 µM.

As to `CC1(C)[C@H]2CC[C@]1(C)C(=O)C2` (racemic) [Camphor], the Ki on MaltOBP10 [1] (setting [9]) is 21.2 ± 3.49 µM; on MaltOBP10 [1] (setting [10]), 26.2 ± 1.76 µM; on MaltOBP9 [2] (setting [11]), 50.5 ± 3.68 µM; at MaltOBP9 [2] (setting [12]) it was 25.9 ± 0.76 µM.

With `Cc1ccc(C(C)C)cc1` [p-cymene], the Ki is 11.7 ± 0.23 µM on MaltOBP9 [3], 35.4 ± 0.63 µM at MaltOBP10 [1] (setting [9]), 23.8 ± 2.33 µM at MaltOBP10 [1] (setting [10]) and > 50 µM on MaltOBP9 [2] (setting [11]).

`CC1(C)C(=O)[C@@]2(C)CC[C@@H]1C2` [(+)-Fenchone]: the Ki at MaltOBP10 [1] (setting [9]) worked out at 24.7 ± 1.29 µM; at MaltOBP10 [1] (setting [10]), 22.7 ± 1.23 µM; on MaltOBP9 [2] (setting [11]) it was 46.2 ± 2.59 µM; at MaltOBP9 [2] (setting [12]) it was 27.8 ± 1.04 µM.

In the case of `C=C(C)[C@H]1CC=C(C)CC1` [R-(+)-Limonene], the Ki on MaltOBP9 [3] was 17.1 ± 2.24 µM; on MaltOBP10 [1] (setting [9]), 55.5 ± 9.88 µM; on MaltOBP10 [1] (setting [10]) it was 23.9 ± 1.89 µM; at MaltOBP9 [2] (setting [11]), > 50 µM.

As for `C=C1[C@H]2CC[C@@H]3[C@H]2[C@H](C(C)C)CC[C@]13C` [(+)-Sativene], the Ki at MaltOBP9 [3] (pH 7.4, 50 mM Tris-HCl, room temperature, competitive with 1-NPN, 2 μM protein) amounted to 19.5 ± 0.36 µM.

In the case of `C=C1CC[C@H]2O[C@]2(C)CC[C@@H]2[C@@H]1CC2(C)C` [(−)-caryophyllene oxide], the results for the Ki on MaltOBP9 [3], at MaltOBP9 [2] (setting [11]) and on MaltOBP10 [4] were 15.3 ± 0.94 µM, 39.3 ± 0.73 µM and 16.4 ± 0.4 µM, respectively.

For `Cc1cc(C(C)(C)C)c(O)c(C(C)(C)C)c1` [Butylated hydroxytoluene], the Ki amounted to 9.58 ± 0.28 µM at MaltOBP9 [3], 3.57 ± 0.58 µM at MaltOBP9 [2] (setting [11]) and 20.1 ± 2.75 µM at MaltOBP10 [4].

With `C=C(C)C1CCC2(C)OC2C1` (single isomer, unassigned; (+)) [(+)-Limonene oxide], the Ki worked out at 46.1 ± 4.9 µM on MaltOBP10 [1] (pH 5.0, binder, read-out: MaltOBP10 / pH5.0); 19.8 ± 1.78 µM at MaltOBP10 [1] (pH 7.4, binder, read-out: MaltOBP10 / pH7.4); 48.8 ± 4.51 µM on MaltOBP9 [2] (pH 5.0, binder, read-out: MaltOBP9 / pH5.0); 43.3 ± 0.74 µM at MaltOBP9 [2] (pH 7.4, binder, read-out: MaltOBP9 / pH7.4).

In the case of `c1ccc(Nc2cccc3ccccc23)cc1` [1-NPN], the Kd on MaltOBP10 [5] came to 5.88 ± 0.69 µM; at MaltOBP9 [6] it was 0.62 ± 0.18 µM; at MaltOBP9 [7] it was 1.7 ± 0.21 µM; at MaltOBP10 [8], 1.35 ± 0.09 µM.

On to `C=C(C)[C@@H]1CC=C(C)CC1` [S-(−)-Limonene], for which the Ki came to 51.7 ± 5.74 µM on MaltOBP10 [1] (setting [9]), 12 ± 0.86 µM on MaltOBP9 [2] (setting [11]), 29.2 ± 1.81 µM at MaltOBP9 [2] (setting [12]) and 18.4 ± 0.67 µM at MaltOBP10 [4].

With `CC1=CC[C@@H]2[C@@H]3[C@H]1[C@@]2(C)CCCC3(C)C` [(+)-α-longipinene], the Ki at MaltOBP9 [3] worked out at 12.5 ± 0.67 µM; on MaltOBP10 [1] (setting [9]), 21.2 ± 1.75 µM; on MaltOBP9 [2] (setting [11]) it was 34.7 ± 0.94 µM; on MaltOBP10 [4], 11.6 ± 0.74 µM.

For `C=C1CC[C@@H]2C[C@H]1C2(C)C` [(+)-β-pinene], the values for the Ki on MaltOBP10 [1] (setting [9]), at MaltOBP10 [1] (setting [10]) and at MaltOBP9 [2] (setting [11]) were 62.8 ± 1.08 µM, 25.8 ± 3.78 µM and 21.7 ± 0.65 µM, respectively.

For `CC1=CCC(=C(C)C)CC1` [α-terpinolene], the Ki on MaltOBP10 [1] (setting [9]) stood at 15.6 ± 1.44 µM; on MaltOBP9 [2] (setting [11]), 18.5 ± 0.23 µM; at MaltOBP9 [2] (setting [12]) it was 22.2 ± 0.34 µM; on MaltOBP10 [4], 17.5 ± 0.33 µM.

Regarding `C=CC(=C)CCC=C(C)C` [Myrcene], the Ki is 7.77 ± 0.14 µM at MaltOBP9 [3], 19.37 ± 0.02 µM at MaltOBP10 [1] (setting [9]), 3.96 ± 0.78 µM on MaltOBP9 [2] (setting [11]) and 12.4 ± 0.5 µM at MaltOBP10 [4].

Consider `CC1=CC[C@@H]2C[C@H]1C2(C)C` [(+)-α-pinene], for which the Ki at MaltOBP10 [1] (setting [9]) is 17.3 ± 3.16 µM; on MaltOBP9 [2] (setting [11]) it was > 50 µM; at MaltOBP9 [2] (setting [12]) it was 21.1 ± 2.84 µM; at MaltOBP10 [4], 13.3 ± 1.94 µM.

Turning to `C=C1[C@@H]2CC[C@@H](C2)C1(C)C` [Camphene], the Ki on MaltOBP10 [1] (setting [9]) was 14.8 ± 0.57 µM; on MaltOBP10 [1] (setting [10]) it was 20.6 ± 1.22 µM; at MaltOBP9 [2] (setting [11]) it was > 50 µM; at MaltOBP9 [2] (setting [12]) it was 22.6 ± 1.08 µM.

The values are drawn from article PMC7174603, “Functional Analysis of Two Odorant-Binding Proteins, MaltOBP9 and MaltOBP10, in Monochamus alternatus Hope” (Frontiers in Physiology, 2020).
